Source: ChEMBL document CHEMBL1155915, “Anticonvulsant activity of some xanthone derivatives” (Bioorg Med Chem, 2008)
The source made the active and inactive calls. The rule behind the calls is not given here.

Experiments:
[1] = test system: Mus musculus; assay: Neurotoxicity in mouse at 10 mg/kg, ip after 0.5 hrs by rotarod test; format: toxicity, organism-based; set-up: dose 10 mg/kg, route intraperitoneal; details: in vivo
[2] = test system: Mus musculus; assay: Neurotoxicity in mouse at 10 mg/kg, ip after 4 hrs by rotarod test; format: toxicity, organism-based; set-up: dose 10 mg/kg, route intraperitoneal; details: in vivo
[3] = test system: Mus musculus; assay: Neurotoxicity in mouse at 30 mg/kg, ip after 0.5 hrs by rotarod test; format: toxicity, organism-based; set-up: dose 30 mg/kg, route intraperitoneal; details: in vivo
[4] = test system: Mus musculus; assay: Neurotoxicity in mouse at 30 mg/kg, ip after 4 hrs by rotarod test; format: toxicity, organism-based; set-up: dose 30 mg/kg, route intraperitoneal; details: in vivo
[5] = test system: Mus musculus; assay: Neurotoxicity in mouse at 100 mg/kg, ip after 4 hrs by rotarod test; format: toxicity, organism-based; set-up: dose 100 mg/kg, route intraperitoneal; details: in vivo
[6] = test system: Mus musculus; assay: Neurotoxicity in mouse at 300 mg/kg, ip after 0.5 hrs by rotarod test; format: toxicity, organism-based; set-up: dose 300 mg/kg, route intraperitoneal; details: in vivo
[7] = test system: Rattus norvegicus; assay: Anticonvulsant activity against maximal electroshock-induced seizures in rat at 30 mg/kg, po after 0.5 hrs; format: functional, organism-based; set-up: dose 30 mg/kg
[8] = test system: Rattus norvegicus; assay: Anticonvulsant activity against maximal electroshock-induced seizures in rat at 30 mg/kg, po after 1 hr; format: functional, organism-based; set-up: dose 30 mg/kg
[9] = test system: Rattus norvegicus; assay: Anticonvulsant activity against maximal electroshock-induced seizures in rat at 30 mg/kg, po after 2 hrs; format: functional, organism-based; set-up: dose 30 mg/kg
[10] = test system: Rattus norvegicus; assay: Anticonvulsant activity against maximal electroshock-induced seizures in rat at 30 mg/kg, po after 4 hrs; format: functional, organism-based; set-up: dose 30 mg/kg
[11] = test system: Rattus norvegicus; assay: Neurotoxicity in rat at 30 mg/kg, po after 0.25 hrs by rotarod test; format: toxicity, organism-based; set-up: dose 30 mg/kg, route oral; details: in vivo
[12] = test system: Rattus norvegicus; assay: Neurotoxicity in rat at 30 mg/kg, po after 0.5 hrs by rotarod test; format: toxicity, organism-based; set-up: dose 30 mg/kg, route oral; details: in vivo
[13] = test system: Rattus norvegicus; assay: Neurotoxicity in rat at 30 mg/kg, po after 1 hr by rotarod test; format: toxicity, organism-based; set-up: dose 30 mg/kg, route oral; details: in vivo
[14] = test system: Rattus norvegicus; assay: Neurotoxicity in rat at 30 mg/kg, po after 2 hrs by rotarod test; format: toxicity, organism-based; set-up: dose 30 mg/kg, route oral; details: in vivo
[15] = test system: Rattus norvegicus; assay: Neurotoxicity in rat at 30 mg/kg, po after 4 hrs by rotarod test; format: toxicity, organism-based; set-up: dose 30 mg/kg, route oral; details: in vivo
[16] = test system: Mus musculus; assay: Neurotoxicity in mouse at 3 mg/kg, ip after 0.5 hrs by rotarod test; format: toxicity, organism-based; set-up: dose 3 mg/kg, route intraperitoneal; details: in vivo
[17] = test system: Mus musculus; assay: Anticonvulsant activity against maximal electroshock-induced seizures in mouse at 3 mg/kg, ip after 0.5 hrs; format: functional, organism-based; set-up: dose 3 mg/kg
[18] = test system: Mus musculus; assay: Anticonvulsant activity against maximal electroshock-induced seizures in mouse at 10 mg/kg, ip after 0.5 hrs; format: functional, organism-based; set-up: dose 10 mg/kg
[19] = test system: Mus musculus; assay: Anticonvulsant activity against maximal electroshock-induced seizures in mouse at 10 mg/kg, ip after 4 hrs; format: functional, organism-based; set-up: dose 10 mg/kg
[20] = test system: Mus musculus; assay: Anticonvulsant activity against maximal electroshock-induced seizures in mouse at 30 mg/kg, ip after 0.5 hrs; format: functional, organism-based; set-up: dose 30 mg/kg
[21] = test system: Mus musculus; assay: Anticonvulsant activity against maximal electroshock-induced seizures in mouse at 30 mg/kg, ip after 4 hrs; format: functional, organism-based; set-up: dose 30 mg/kg
[22] = test system: Mus musculus; assay: Anticonvulsant activity against maximal electroshock-induced seizures in mouse at 100 mg/kg, ip after 0.5 hrs; format: functional, organism-based; set-up: dose 100 mg/kg
[23] = test system: Mus musculus; assay: Anticonvulsant activity against scMet-induced seizures in mouse at 10 mg/kg, ip after 0.5 hrs; format: functional, organism-based; set-up: dose 10 mg/kg
[24] = test system: Mus musculus; assay: Anticonvulsant activity against scMet-induced seizures in mouse at 100 mg/kg, ip after 4 hrs; format: functional, organism-based; set-up: dose 100 mg/kg
[25] = test system: Mus musculus; assay: Anticonvulsant activity against scMet-induced seizures in mouse at 10 mg/kg, ip after 4 hrs; format: functional, organism-based; set-up: dose 10 mg/kg
[26] = test system: Mus musculus; assay: Anticonvulsant activity against scMet-induced seizures in mouse at 30 mg/kg, ip after 0.5 hrs; format: functional, organism-based; set-up: dose 30 mg/kg
[27] = test system: Mus musculus; assay: Anticonvulsant activity against scMet-induced seizures in mouse at 30 mg/kg, ip after 4 hrs; format: functional, organism-based; set-up: dose 30 mg/kg
[28] = test system: Mus musculus; assay: Anticonvulsant activity against scMet-induced seizures in mouse at 100 mg/kg, ip after 0.5 hrs; format: functional, organism-based; set-up: dose 100 mg/kg
[29] = test system: Mus musculus; assay: Neurotoxicity in mouse at 100 mg/kg, ip after 0.25 hrs by rotarod test; format: toxicity, organism-based; set-up: dose 100 mg/kg, route intraperitoneal; details: in vivo
[30] = test system: Mus musculus; assay: Neurotoxicity in mouse at 300 mg/kg, ip after 4 hrs by rotarod test; format: toxicity, organism-based; set-up: dose 300 mg/kg, route intraperitoneal; details: in vivo
[31] = test system: Mus musculus; assay: Anticonvulsant activity against maximal electroshock-induced seizures in mouse at 100 mg/kg, ip after 1 hr; format: functional, organism-based; set-up: dose 100 mg/kg
[32] = test system: Mus musculus; assay: Anticonvulsant activity against maximal electroshock-induced seizures in mouse at 300 mg/kg, ip after 0.5 hrs; format: functional, organism-based; set-up: dose 300 mg/kg
[33] = test system: Mus musculus; assay: Anticonvulsant activity against maximal electroshock-induced seizures in mouse at 300 mg/kg, ip after 4 hrs; format: functional, organism-based; set-up: dose 300 mg/kg
[34] = test system: Mus musculus; assay: Anticonvulsant activity against scMet-induced seizures in mouse at 300 mg/kg, ip after 0.5 hrs; format: functional, organism-based; set-up: dose 300 mg/kg
[35] = test system: Mus musculus; assay: Anticonvulsant activity against scMet-induced seizures in mouse at 300 mg/kg, ip after 4 hrs; format: functional, organism-based; set-up: dose 300 mg/kg

CCN(CCO)Cc1ccc2oc3cc(Cl)ccc3c(=O)c2c1
Neurotoxicity [1]: Not Active
Neurotoxicity [2]: Not Active
Neurotoxicity [3]: Not Active
Neurotoxicity [4]: Not Active
Neurotoxicity [5]: Neurotoxic
Neurotoxicity [6]: Neurotoxic
Activity [7]: inactive
Activity [8]: inactive
Activity [9]: inactive
Activity [10]: inactive
Neurotoxicity [11]: Not Active
Neurotoxicity [12]: Not Active
Neurotoxicity [13]: Not Active
Neurotoxicity [14]: Not Active
Neurotoxicity [15]: Not Active
Neurotoxicity [16]: Not Active
Activity [17]: inactive
Activity [18]: Active
Activity [19]: inactive
Activity [20]: inactive
Activity [21]: inactive
Activity [22]: Active
Activity [23]: inactive
Activity [24]: inactive
Activity [25]: inactive
Activity [26]: inactive
Activity [27]: inactive
Activity [28]: inactive

C[C@@H](CCl)NCc1ccc2oc3cc(Cl)ccc3c(=O)c2c1.Cl
Neurotoxicity [4]: Not Active
Neurotoxicity [29]: Not Active
Neurotoxicity [5]: Not Active
Neurotoxicity [30]: Not Active
Activity [20]: inactive
Activity [21]: inactive
Activity [22]: inactive
Activity [31]: inactive
Activity [32]: Active
Activity [33]: Active
Activity [24]: inactive
Activity [26]: inactive
Activity [27]: inactive
Activity [28]: inactive
Activity [34]: inactive
Activity [35]: inactive
